From patent US20230295200A1 (REGENTS OF THE UNIVERSITY OF MICHIGAN, priority 2022, published 2023)

Experiments:
[1] = target: T1, STAT5A (Homo sapiens, UniProt P42229); experiment: Fluorescence polarization (FP) binding assay, STAT5A; settings: FP competition, 5 nM fluorescein-labeled tracer, 200 nM protein, PBS pH7.4
T1 sequence (P42229 1-794): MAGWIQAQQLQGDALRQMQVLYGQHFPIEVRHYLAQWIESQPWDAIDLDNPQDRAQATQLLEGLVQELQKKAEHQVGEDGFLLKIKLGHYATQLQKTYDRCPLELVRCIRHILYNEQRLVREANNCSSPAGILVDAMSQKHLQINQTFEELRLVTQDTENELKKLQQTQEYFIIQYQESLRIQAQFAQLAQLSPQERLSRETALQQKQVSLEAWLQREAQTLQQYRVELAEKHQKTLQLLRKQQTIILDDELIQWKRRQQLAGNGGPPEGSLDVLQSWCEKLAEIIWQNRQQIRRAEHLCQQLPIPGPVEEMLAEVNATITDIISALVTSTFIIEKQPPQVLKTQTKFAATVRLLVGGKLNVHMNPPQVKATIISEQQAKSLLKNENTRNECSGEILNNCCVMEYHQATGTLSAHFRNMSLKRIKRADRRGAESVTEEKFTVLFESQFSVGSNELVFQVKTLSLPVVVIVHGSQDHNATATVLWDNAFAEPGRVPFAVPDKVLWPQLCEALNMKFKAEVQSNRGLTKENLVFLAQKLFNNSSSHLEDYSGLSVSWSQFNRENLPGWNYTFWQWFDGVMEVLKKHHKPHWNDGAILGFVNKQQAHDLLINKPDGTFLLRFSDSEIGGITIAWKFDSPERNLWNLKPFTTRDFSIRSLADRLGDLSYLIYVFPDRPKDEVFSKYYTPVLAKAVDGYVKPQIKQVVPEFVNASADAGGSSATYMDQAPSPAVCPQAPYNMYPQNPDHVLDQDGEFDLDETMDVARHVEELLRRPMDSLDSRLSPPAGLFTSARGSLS
Protocol: Evaluation of the activity of the inhibitors may be accomplished by fluorescence polarization (FP) experiments. A representative general protocol is the following:
Fluorescence polarization (FP) experiments are performed in black round-bottom plates using the CLARIOstar microplate reader. To each well, fluorescein-labeled tracer and STAT5 or STAT6 protein are added in assay buffer. […] The inhibition constants are determined as the concentration of the STAT5 or STAT6 at which 50% of the ligand is bound.
Fluorescence polarization (FP) experiments were performed in 96-well, black round-bottom plates (Microfluor 2, Fisher Scientific) using the CLARIOstar microplate reader (BMG Labtech). To each well, 5 nM of fluoresceinlabeled tracer and 200 nM of STAT5 and/or STAT6 protein were added to a final volume of 100 μl in the assay buffer (PBS pH7.4+0.01% BGG+0.01% Tween-20, 2 mM DTT). The plate was mixed on a shaker for 15 m and incubated at room temperature for 1 h to reach equilibrium. […] All experimental data were analyzed using Prism 8.0 software (GraphPad Software), and the inhibition constants were determined by nonlinear curve fitting as the concentration of the STAT5 and/or STAT6 at which 50% of the ligand is bound.

[2] = target: T2, STAT6 protein (Homo sapiens, UniProt P42226); experiment: Fluorescence polarization (FP) binding assay, STAT6; settings: FP competition, 5 nM fluorescein-labeled tracer, 200 nM protein, PBS pH7.4; read-out: Binding STAT6
T2 sequence (P42226 1-847): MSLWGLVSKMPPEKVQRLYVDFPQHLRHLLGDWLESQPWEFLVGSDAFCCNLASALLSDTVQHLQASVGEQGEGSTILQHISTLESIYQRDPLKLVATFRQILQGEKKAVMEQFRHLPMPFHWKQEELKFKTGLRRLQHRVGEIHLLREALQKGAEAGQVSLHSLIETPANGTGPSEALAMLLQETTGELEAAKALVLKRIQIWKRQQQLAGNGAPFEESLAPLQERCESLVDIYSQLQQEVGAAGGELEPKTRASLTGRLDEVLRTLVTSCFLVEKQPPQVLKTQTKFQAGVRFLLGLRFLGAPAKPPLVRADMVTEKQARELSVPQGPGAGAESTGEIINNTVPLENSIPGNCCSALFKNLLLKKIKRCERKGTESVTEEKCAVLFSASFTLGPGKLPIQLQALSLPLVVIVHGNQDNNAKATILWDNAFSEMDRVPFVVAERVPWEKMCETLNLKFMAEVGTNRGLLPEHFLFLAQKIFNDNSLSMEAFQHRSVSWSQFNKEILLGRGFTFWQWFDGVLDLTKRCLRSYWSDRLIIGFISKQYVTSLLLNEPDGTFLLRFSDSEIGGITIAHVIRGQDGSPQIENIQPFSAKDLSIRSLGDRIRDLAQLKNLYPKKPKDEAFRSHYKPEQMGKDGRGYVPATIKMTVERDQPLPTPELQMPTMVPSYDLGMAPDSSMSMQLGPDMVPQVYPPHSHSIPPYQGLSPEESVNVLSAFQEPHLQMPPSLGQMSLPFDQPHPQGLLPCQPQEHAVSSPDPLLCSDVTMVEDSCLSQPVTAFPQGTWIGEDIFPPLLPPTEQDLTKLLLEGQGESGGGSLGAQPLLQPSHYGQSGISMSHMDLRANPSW
Procedure, shortened: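 Competitive FP read-out with 5 nM fluorescein-labeled tracer and 200 nM STAT5 or STAT6 protein in PBS pH 7.4 containing 0.01% BGG, 0.01% Tween-20 and 2 mM DTT. Plates were shaken 15 min, then equilibrated 1 h at room temperature; inhibition constants came from nonlinear curve fitting.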

Ki [1]	Ki [2]	Compound
1000 to 10000 nM	100 to 1000 nM	CNC(=O)c1ccc(N(C(=O)[C@@H]2CCCN2C(=O)[C@@H](NC(=O)c2cc3cc(C(F)(F)P(=O)(O)O)ccc3s2)C(C)(C)C)c2ccc(I)cc2)cc1 [Compound 42, (difluoro(2-(((S)-1-((S)-2-((4-iodophenyl)(4-(methylcarbamoyl)phenyl)carbamoyl)pyrrolidin-1-yl)-3,3-dimethyl-1-oxobutan-2-yl)carbamoyl)benzo[b]thiophen-5-yl)methyl)phosphonic acid]
> 10000 nM	1000 to 10000 nM	CC(=O)N1CC[C@H]2CC[C@@H](C(=O)N3CCOC(C)(c4ccc(Cl)cc4)C3)N2C(=O)[C@@H](NC(=O)c2cc3cc(C(F)(F)P(=O)(O)O)ccc3s2)C1 (stereo partly drawn) [Compound 160, ((2-(((5S,8S,10aR)-3-acetyl-8-(2-(4-chlorophenyl)-2-methylmorpholine-4-carbonyl)-6-oxodecahydropyrrolo[1,2-a][1,5]diazocin-5-yl)carbamoyl)benzo[b]thiophen-5-yl)difluoromethyl)phosphonic acid]
> 10000 nM	> 10000 nM	CC(C)(C)[C@H](NC(=O)c1cc2cc(C(F)(F)P(=O)(O)O)ccc2s1)C(=O)N1CCC[C@H]1C(=O)N1C[C@H]2CCN[C@H]2C1 [Compound 80, ((2-(((S)-3,3-dimethyl-1-((S)-2-((3aR,6aR)-octahydropyrrolo[3,4-b]pyrrole-5-carbonyl)pyrrolidin-1-yl)-1-oxobutan-2-yl)carbamoyl)benzo[b]thiophen-5-yl)difluoromethyl)phosphonic acid]
1000 to 10000 nM	–	CN(C)C(=O)CCN(C(=O)[C@@H]1CCCN1C(=O)[C@@H](NC(=O)c1cc2cc(C(F)(F)P(=O)(O)O)ccc2s1)C1CC1)c1ccc(-c2nccs2)cc1 [Compound 321, ((2-(((S)-1-cyclopropyl-2-((S)-2-((3-(dimethylamino)-3-oxopropyl)(4-(thiazol-2-yl)phenyl)carbamoyl)pyrrolidin-1-yl)-2-oxoethyl)carbamoyl)benzo[b]thiophen-5-yl)difluoromethyl)phosphonic acid]
1000 to 10000 nM	–	CC(C)(C)[C@H](NC(=O)c1cc2cc(C(F)(F)P(=O)(O)O)ccc2s1)C(=O)N1CCC[C@H]1C(=O)Nc1ncc(-c2ccc(Br)cc2)s1 [Compound 264, ((2-(((S)-1-((S)-2-((5-(4-bromophenyl)thiazol-2-yl)carbamoyl)pyrrolidin-1-yl)-3,3-dimethyl-1-oxobutan-2-yl)carbamoyl)benzo[b]thiophen-5-yl)difluoromethyl)phosphonic acid]
100 to 1000 nM	–	CC(C)(C)[C@H](NC(=O)c1cc2cc(C(F)(F)P(=O)(O)O)ccc2s1)C(=O)N1CCC[C@H]1C(=O)Nc1ncc(-c2ccccc2)s1 [Compound 255, ((2-(((S)-3,3-dimethyl-1-oxo-1-((S)-2-((5-phenylthiazol-2-yl)carbamoyl)pyrrolidin-1-yl)butan-2-yl)carbamoyl)benzo[b]thiophen-5-yl)difluoromethyl)phosphonic acid]
> 10000 nM	–	CCCc1cnc(NC(=O)[C@@H]2CCCN2C(=O)[C@@H](NC(=O)c2cc3cc(C(F)(F)P(=O)(O)O)ccc3s2)C(C)(C)C)s1 [Compound 253, ((2-(((S)-3,3-dimethyl-1-oxo-1-((S)-2-((5-propylthiazol-2-yl)carbamoyl)pyrrolidin-1-yl)butan-2-yl)carbamoyl)benzo[b]thiophen-5-yl)difluoromethyl)phosphonic acid]
1000 to 10000 nM	–	CN(C)C(=O)CCN(C(=O)[C@@H]1CCCN1C(=O)[C@H](Cc1ccc(C(F)(F)F)cc1)NC(=O)c1cc2cc(C(F)(F)P(=O)(O)O)ccc2s1)c1ccc(-c2nccs2)cc1 [Compound 327, ((2-(((S)-1-((S)-2-((3-(dimethylamino)-3-oxopropyl)(4-(thiazol-2-yl)phenyl)carbamoyl)pyrrolidin-1-yl)-1-oxo-3-(4-(trifluoromethyl)phenyl)propan-2-yl)carbamoyl)benzo[b]thiophen-5-yl)difluoromethyl)phosphonic acid]
> 10000 nM	–	CC(C)(C)[C@H](NC(=O)c1cc2cc(C(F)(F)P(=O)(O)O)ccc2s1)C(=O)N1CCC[C@H]1C(=O)Nc1ncc(-c2ccc(Cl)cc2)s1 [Compound 263, ((2-(((S)-1-((S)-2-((5-(4-chlorophenyl)thiazol-2-yl)carbamoyl)pyrrolidin-1-yl)-3,3-dimethyl-1-oxobutan-2-yl)carbamoyl)benzo[b]thiophen-5-yl)difluoromethyl)phosphonic acid]
1000 to 10000 nM	–	CN(C)C(=O)CCN(C(=O)[C@@H]1CCCN1C(=O)[C@H](Cc1ccc2ccccc2c1)NC(=O)c1cc2cc(C(F)(F)P(=O)(O)O)ccc2s1)c1ccc(-c2nccs2)cc1 [Compound 329, ((2-(((S)-1-((S)-2-((3-(dimethylamino)-3-oxopropyl)(4-(thiazol-2-yl)phenyl)carbamoyl)pyrrolidin-1-yl)-3-(naphthalen-2-yl)-1-oxopropan-2-yl)carbamoyl)benzo[b]thiophen-5-yl)difluoromethyl)phosphonic acid]
1000 to 10000 nM	–	CC(C)(C)[C@H](NC(=O)c1cc2cc(C(F)(F)P(=O)(O)O)ccc2s1)C(=O)N1CCC[C@H]1C(=O)Nc1ncc(C2CCOCC2)s1 [Compound 249, ((2-(((S)-3,3-dimethyl-1-oxo-1-((S)-2-((5-(tetrahydro-2H-pyran-4-yl)thiazol-2-yl)carbamoyl)pyrrolidin-1-yl)butan-2-yl)carbamoyl)benzo[b]thiophen-5-yl)difluoromethyl)phosphonic acid]
100 to 1000 nM	–	CN(C)C(=O)CCN(C(=O)[C@@H]1CCCN1C(=O)[C@H](Cc1ccc(F)cc1)NC(=O)c1cc2cc(C(F)(F)P(=O)(O)O)ccc2s1)c1ccc(-c2nccs2)cc1 [Compound 325, ((2-(((S)-1-((S)-2-((3-(dimethylamino)-3-oxopropyl)(4-(thiazol-2-yl)phenyl)carbamoyl)pyrrolidin-1-yl)-3-(4-fluorophenyl)-1-oxopropan-2-yl)carbamoyl)benzo[b]thiophen-5-yl)difluoromethyl)phosphonic acid]
1000 to 10000 nM	–	CN(C)C(=O)CCN(C(=O)[C@@H]1CCCN1C(=O)[C@H](Cc1ccc(Br)cc1)NC(=O)c1cc2cc(C(F)(F)P(=O)(O)O)ccc2s1)c1ccc(-c2nccs2)cc1 [Compound 326, ((2-(((S)-3-(4-bromophenyl)-1-((S)-2-((3-(dimethylamino)-3-oxopropyl)(4-(thiazol-2-yl)phenyl)carbamoyl)pyrrolidin-1-yl)-1-oxopropan-2-yl)carbamoyl)benzo[b]thiophen-5-yl)difluoromethyl)phosphonic acid]
